# According to patent publication US20200140560A1, “PROTEASE BASED SWITCH CHIMERIC ANTIGEN RECEPTORS FOR SAFER CELL IMMUNOTHERAPY” (CELLECTIS, priority 2017, published 2020):
# “Also recorded” adds a separate entry of the source.
# Experiments:
# [1] = test system: degron CARs (anti-CD123, anti-CD22) with NS3 protease domain in primary human T-cells; test: Surface expression of C-terminal fusion degron CARs in primary human T-cells (flow cytometry, labeled recombinant CD22 or CD123); format: cell-based; settings: 500 nM Asunaprevir for 48 h, FIG. 6
# Text: FIG. 6: Experimental results obtained with T-cells endowed with the CARs of the present invention. 6A: Percentage of CAR positive T-cells (presentation of anti-CD123 CARs at the surface of the transduced cells) in presence or absence of the protease inhibitor Asunaprevir. 6B: Percentage of CAR positive T-cells (presentation of anti-CD22 CARs at the surface of the transduced cells) in presence or absence of the protease inhibitor Asunaprevir). Controls are T-cells endowed with CARs lacking controlled degradation moiety (high presentation of CARs at the surface of the transduced cells). The percentage of CAR positive cells is measured by flow cytometry. Experimental details are provided in example 2.
# 3-5 days post transduction T-cells were incubated with or without 500 nM Asunaprevir for 48 h. The proportion of T-cells expressing the CAR at their surface was then quantified using labeled recombinant protein CD22 or CD123 targeted by the CAR (LakePharma).
# [2] = test system: CD22 positive Raji cells killed by anti-CD22 degron CAR T-cells; test: Cytolytic properties of anti-CD22 degron CAR T-cells after wash-out of Asunaprevir; settings: 500 nM Asunaprevir, wash-out 48 h, 24 h or 0 h prior to cytotoxicity assay; Raji 3:1; FIGS. 8A and 8B
# Experimental: A fraction of the cells is maintained under 500 nM of Asunaprevir (correspond to the no wash-out point).
# After 24 h the cells are pelleted, the supernatant is collected for luciferase quantification.
# T-cells = test: T-cell proliferation in presence of Asunaprevir; format: cell-based, human; settings: 100 nM to 1 μM ASN; FIG. 9
# Experimental: FIG. 9: Proliferation of T-cells in the presence of increasing concentrations of Asunaprevir (see example 5). The total number of cells at different days cultured in presence of 100 nM, 500 nM or 1000 nM relative to 0 nM ASN is presented. Data are shown as the median of PBMC from 2 donors done in duplicate.
# T-cells were cultured in X-Vivo 15 (Lonza) supplemented with 5% human serum hAB (Gemini) and 20 ng/ml IL-2 (Miltenyi) at a density of 1×10^6 cells/ml in presence of various dose (0-1000 nM) of the Asunaprevir protease inhibitor.
# [3] = test system: CD22 positive target cells (Raji) killed by degron CAR T-cells; test: Cytolytic properties of C-terminal fusion degron CAR T-cells against luciferase-expressing Raji cells with Asunaprevir; settings: 500 nM Asunaprevir; T-cells:Raji 3:1; 3 consecutive days; FIG. 7
# Experimental: Data are normalized using untransduced human primary T-cells.
# After 24 h the cells were pelleted, the supernatant was collected for luciferase quantification and the pelleted cells were resuspended in fresh complete X-vivo (supplemented or not with 500 nM Asunaprevir) media and 0.5×10^6 target cells (CD22 positive cells) were added.
# [4] = test system: anti-CD22 CAR T-cells co-cultured with Raji target cells; test: Cytokine profiling of anti-CD22 CAR T-cells co-cultured with Raji target cells in presence of Asunaprevir; format: cell-based, human; settings: various concentrations of ASN, 24 hours co-culture with Raji; FIG. 10
# Experimental: FIG. 10: Cytokine quantification after co-culture of anti-CD22 CAR T-cells with target cells as a function of Asunaprevir concentration (see example 6). Data are shown as the mean±SD of duplicates per points.
# T-cells were co-cultured with Raji target cells in 12-well culture plates in the presence of various concentrations of ASN for 24 hours. Cells were spun down, and the supernatants were aliquoted and frozen. Cytokine levels in the supernatants were measured with LEGEND plex Human Th Cytokine panel (Biolegend).
# [5] = test system: Raji target cells killed by SWOFF anti-CD22 CAR T-cells (TRAC locus integration); test: Cytotoxicity of T-cells with SWOFF anti-CD22 CAR integrated at the TRAC locus against luciferase-expressing Raji cells, Asunaprevir dose response; format: cell-based, human
# Text: Data are shown as median with 95% confidence intervals of triplicates per points. N=2, performed in triplicates.
# T-cells were then passaged the day prior to the transfection/transduction at 1×10^6 cells/ml in complete media. On the day of transfection/transduction, the cells were de-beaded by magnetic separation (EasySep), washed twice in Cytoporation buffer T (BTX Harvard Apparatus, Holliston, Mass.), and resuspended at a final concentration of 28×10^6 cells/ml in the same solution.
# The electroporated cells were then immediately transferred to a 12-well plate containing 1 ml of prewarmed X-vivo-15 serum-free media and incubated for 37° C. for 15 min. The cells were then plated at a concentration of 10,000 cells/well with AAV in a 20 μl total volume of serum-free media (MOI: 1×10^5 vg/cells) in 96-well round bottom plates. […] 100 pL of fresh complete media was then added. Six days after transduction, 0.5×10^6 cells were seeded in a G-Rex 24-well plate (Wilson Wolf) in 5 ml of complete X-vivo-15 media and cultivated for 11 days.
# After 24 h, the cells are collected and mixed, and 100 ul of cells was used for luciferase quantification (OneGlo, Promega). The remainder of the cells were pelleted and resuspended in fresh X-vivo 15 media with 5% hAB serum, no 11-2 (supplemented with or without 1-500 nM Asunaprevir), and an additional 0.5×10^6 target cells were added.
compound,measurement,setting,value
"C=C[C@@H]1C[C@]1(NC(=O)[C@@H]1C[C@@H](Oc2ncc(OC)c3ccc(Cl)cc23)CN1C(=O)[C@@H](NC(=O)OC(C)(C)C)C(C)(C)C)C(=O)NS(=O)(=O)C1CC1 [Asunaprevir, asunaprevir]","CAR presentation at the surface, control CARs lacking the self-excising degron",[1]; control CARs,did not react
same,CAR presentation at the surface of the transduced T-cells population,[1]; degron CARs anti-CD123 / anti-CD22,could be controlled by Asunaprevir
same,CAR cytolytic properties after wash-out of Asunaprevir,[2],controlled by Asunaprevir in a reversible manner
same,proliferation of the T-cells,T-cells,no effects
same,viability of the T-cells,T-cells,no effects
same,CAR cytolytic properties (percentage of CD22 positive target cells killed),[3],could be negatively controlled; also recorded: reduced
same,cytokine production,[4],did not result in notable variations
same,CAR T-cells cytolytic properties (luciferase signal of target cells),"[5]; 1 to 500 nM Asunaprevir, T-cells:Raji 3:1, FIG. 14",controlled by addition of Asunaprevir
same,IC50,"[5]; Homo sapiens, Raji, read-out: IC50 of control of CAR T-cells cytolytic properties",~15 nM
